{"source": "PubChem BioAssay (NCI)", "test_in_all_cases": "inhibition of tumour cell growth, NCI panel, 48 h", "key": {"SF-295 CNS": {"tested_on": "SF-295 CNS"}, "SNB-75 CNS": {"tested_on": "SNB-75 CNS"}, "T-47D breast": {"tested_on": "T-47D breast"}, "PC-3 prostate": {"tested_on": "PC-3 prostate"}, "OVCAR-8 ovarian": {"tested_on": "OVCAR-8 ovarian"}, "RPMI-8226 leukemia": {"tested_on": "RPMI-8226 leukemia"}, "MOLT-4 leukemia": {"tested_on": "MOLT-4 leukemia"}, "HS 578T breast": {"tested_on": "HS 578T breast"}, "SN12C renal": {"tested_on": "SN12C renal"}, "HOP-62 NSCLC": {"tested_on": "HOP-62 NSCLC"}, "MDA-MB-231 breast": {"tested_on": "MDA-MB-231 breast"}, "NCI/ADR-RES ovarian": {"tested_on": "NCI/ADR-RES ovarian"}, "M14 melanoma": {"tested_on": "M14 melanoma"}, "HL-60(TB) leukemia": {"tested_on": "HL-60(TB) leukemia"}, "A498 renal": {"tested_on": "A498 renal"}, "NCI-H23 lung": {"tested_on": "NCI-H23 lung"}, "RXF 393 renal": {"tested_on": "RXF 393 renal"}, "SF-539 CNS": {"tested_on": "SF-539 CNS"}, "COLO 205 colon": {"tested_on": "COLO 205 colon"}, "HCT-116 colon": {"tested_on": "HCT-116 colon"}, "UACC-62 melanoma": {"tested_on": "UACC-62 melanoma"}, "ACHN renal": {"tested_on": "ACHN renal"}, "UACC-257 melanoma": {"tested_on": "UACC-257 melanoma"}, "MCF7 breast": {"tested_on": "MCF7 breast"}, "HCC-2998 colon": {"tested_on": "HCC-2998 colon"}, "SK-OV-3 ovarian": {"tested_on": "SK-OV-3 ovarian"}, "MALME-3M melanoma": {"tested_on": "MALME-3M melanoma"}}, "note": "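48-hour exposure; five concentrations; linearly interpolated endpoints. At the GI50, growth is halved. TGI: total growth inhibition.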"}
{"molecule": "Nc1ncc(-c2ccc(C(F)(F)F)cc2)c(NC2CCCCCC2)n1", "values": [{"measurement": "GI50", "setting": "SF-295 CNS", "value": 24.1, "unit": "µM"}, {"measurement": "TGI", "setting": "SF-295 CNS", "value": "> 100", "unit": "µM"}, {"measurement": "GI50", "setting": "SNB-75 CNS", "value": 43.4, "unit": "µM"}, {"measurement": "TGI", "setting": "SNB-75 CNS", "value": "> 100", "unit": "µM"}, {"measurement": "GI50", "setting": "T-47D breast", "value": 18.3, "unit": "µM"}, {"measurement": "TGI", "setting": "T-47D breast", "value": "> 100", "unit": "µM"}, {"measurement": "GI50", "setting": "PC-3 prostate", "value": 25.4, "unit": "µM"}, {"measurement": "TGI", "setting": "PC-3 prostate", "value": "> 100", "unit": "µM"}, {"measurement": "GI50", "setting": "OVCAR-8 ovarian", "value": 32.5, "unit": "µM"}, {"measurement": "TGI", "setting": "OVCAR-8 ovarian", "value": "> 100", "unit": "µM"}, {"measurement": "GI50", "setting": "RPMI-8226 leukemia", "value": 8.91, "unit": "µM"}, {"measurement": "TGI", "setting": "RPMI-8226 leukemia", "value": 41.1, "unit": "µM"}, {"measurement": "GI50", "setting": "MOLT-4 leukemia", "value": 23.3, "unit": "µM"}, {"measurement": "TGI", "setting": "MOLT-4 leukemia", "value": 81.5, "unit": "µM"}, {"measurement": "GI50", "setting": "HS 578T breast", "value": 25.5, "unit": "µM"}, {"measurement": "TGI", "setting": "HS 578T breast", "value": "> 100", "unit": "µM"}, {"measurement": "GI50", "setting": "SN12C renal", "value": 29.4, "unit": "µM"}, {"measurement": "TGI", "setting": "SN12C renal", "value": "> 100", "unit": "µM"}, {"measurement": "GI50", "setting": "HOP-62 NSCLC", "value": 54.7, "unit": "µM"}, {"measurement": "TGI", "setting": "HOP-62 NSCLC", "value": "> 100", "unit": "µM"}, {"measurement": "GI50", "setting": "MDA-MB-231 breast", "value": 21.3, "unit": "µM"}, {"measurement": "TGI", "setting": "MDA-MB-231 breast", "value": 76.9, "unit": "µM"}, {"measurement": "GI50", "setting": "NCI/ADR-RES ovarian", "value": 25.3, "unit": "µM"}, {"measurement": "TGI", "setting": "NCI/ADR-RES ovarian", "value": "> 100", "unit": "µM"}, {"measurement": "GI50", "setting": "M14 melanoma", "value": 32.9, "unit": "µM"}, {"measurement": "TGI", "setting": "M14 melanoma", "value": "> 100", "unit": "µM"}, {"measurement": "GI50", "setting": "HL-60(TB) leukemia", "value": 21.4, "unit": "µM"}, {"measurement": "TGI", "setting": "HL-60(TB) leukemia", "value": 63.6, "unit": "µM"}, {"measurement": "GI50", "setting": "A498 renal", "value": 13.4, "unit": "µM"}, {"measurement": "TGI", "setting": "A498 renal", "value": 79.3, "unit": "µM"}, {"measurement": "GI50", "setting": "NCI-H23 lung", "value": 20, "unit": "µM"}, {"measurement": "TGI", "setting": "NCI-H23 lung", "value": "> 100", "unit": "µM"}, {"measurement": "GI50", "setting": "RXF 393 renal", "value": 16.1, "unit": "µM"}, {"measurement": "TGI", "setting": "RXF 393 renal", "value": 88, "unit": "µM"}, {"measurement": "GI50", "setting": "SF-539 CNS", "value": 52.5, "unit": "µM"}, {"measurement": "TGI", "setting": "SF-539 CNS", "value": "> 100", "unit": "µM"}, {"measurement": "GI50", "setting": "COLO 205 colon", "value": 19.5, "unit": "µM"}, {"measurement": "TGI", "setting": "COLO 205 colon", "value": 36.7, "unit": "µM"}, {"measurement": "GI50", "setting": "HCT-116 colon", "value": 20.2, "unit": "µM"}, {"measurement": "TGI", "setting": "HCT-116 colon", "value": "> 100", "unit": "µM"}, {"measurement": "GI50", "setting": "UACC-62 melanoma", "value": 20.4, "unit": "µM"}, {"measurement": "TGI", "setting": "UACC-62 melanoma", "value": "> 100", "unit": "µM"}, {"measurement": "GI50", "setting": "ACHN renal", "value": 33.8, "unit": "µM"}, {"measurement": "TGI", "setting": "ACHN renal", "value": "> 100", "unit": "µM"}, {"measurement": "GI50", "setting": "UACC-257 melanoma", "value": 22.3, "unit": "µM"}, {"measurement": "TGI", "setting": "UACC-257 melanoma", "value": "> 100", "unit": "µM"}, {"measurement": "GI50", "setting": "MCF7 breast", "value": 27.5, "unit": "µM"}, {"measurement": "TGI", "setting": "MCF7 breast", "value": "> 100", "unit": "µM"}, {"measurement": "GI50", "setting": "HCC-2998 colon", "value": 48.5, "unit": "µM"}, {"measurement": "TGI", "setting": "HCC-2998 colon", "value": "> 100", "unit": "µM"}, {"measurement": "GI50", "setting": "SK-OV-3 ovarian", "value": "> 100", "unit": "µM"}, {"measurement": "TGI", "setting": "SK-OV-3 ovarian", "value": "> 100", "unit": "µM"}, {"measurement": "GI50", "setting": "MALME-3M melanoma", "value": 18.6, "unit": "µM"}, {"measurement": "TGI", "setting": "MALME-3M melanoma", "value": 81.8, "unit": "µM"}]}
